“Also recorded” adds a separate entry of the source.

Test [1] concerns SW620 cells. The test can be described thus: Apparent dissociation constant by flow cytometry. The test is classed as binding, human. The settings on record: 0-200 nM, 1 h at 4° C., R^2=0.95. On the procedure:
The apparent dissociation constant of RTS*-Cy5.5 to SW620 cells was measured. SW620 cells were washed two times with PBS+0.5% BSA, then 1×10^5 cells were incubated with RTS*Cy5.5 at dilutions ranging from 0-200 nM for 1 h at 4° C. Cells were then washed of unbound peptide 5 times with PBS+0.5% BSA before analyzing via flow cytometry (FACS Canto, BD). Sample means were used to calculate the equilibrium dissociation constant, kd, via nonlinear regression analysis using GraphPad Prism software.
The apparent dissociation constant (kd) of the peptides to cells in vitro was determined. The fluorescently-labeled peptide was be serially diluted in PBS at concentrations that ranged from 0 to 200 nM in 25 nM increments. Cells were incubated with the peptide, and the mean fluorescence intensities was measured on flow cytometry. The equilibrium dissociation constant kd=1/ka was calculated by performing a least squares fit of the data to the non-linear equation I=(I0+Imaxka[X])/([…]). I0 and Imax are the initial and maximum fluorescence intensities, corresponding to no peptide and at saturation, respectively, and [X] represents the concentration of the bound peptide. This approach is illustrated with RTS*-Cy5.5 in FIG. 3B, where kd=42 nM.

Test [2] relates to proximal human colon specimens. The test can be described thus: Immunofluorescence of proximal human colon with claudin-1 peptide and antibody. On the procedure: Formalin-fixed, paraffin-embedded (FFPE) specimens from human proximal colon were obtained from the archived tissue bank in the Department of Pathology at the University of Michigan. 5 μm thick sections were cut, mounted onto glass slides (Superfrost Plus, Fischer Scientific). The tissues were deparaffinized using a standard protocol. The sections were incubated with 3 rounds of xylene (3 min each) and 2 rounds of 100% and 95% ethanol (2 min each), and hydrated with water for 5 min. Antigen retrieval was performed with 10 mM citric acid buffer containing 0.05% Tween 20; pH 6.0. The specimens were placed in a citric acid buffer, maintained at a sub-boiling temperature for 15 min, and then allowed to cool to RT for 30 min. […] Confocal fluorescence images were collected with using a 63× oil immersion objective (Leica TCS SP5 Microsystems). […]
The mean fluorescence intensities from 3 boxes with dimensions of 20×20 μm2 placed completely within the surface epithelium of each image was measured for RTS*-Cy5.5 using custom Matlab software (MathWorks Inc). […]
Co-localization of peptide and antibody binding can be appreciated on these merged images, and the extent is characterized by the Pearson's correlation coefficient ρ. We measured the fluorescence intensities from binding of the RTS*-Cy5.5 peptide in a set of 3 boxes with dimensions of 20×20 μm^2 located at random on cells in the epithelium.

As for “RTS*-Cy5.5: RTSPSSR labeled at the C-terminus with Cy5.5 via a GGGSK linker”, the Kd in test [1] was 42 nM. Besides, the “binding on confocal microscopy” value was “minimal fluorescence intensity; also recorded: minimal binding” in test [2] (normal colonic mucosa and hyperplastic polyps); “strong binding; also recorded: found to bind; also recorded: Strong staining” in test [2] (sessile serrated adenomas (SSA) and adenomas).

The values above are taken from US10746738B2, “Claudin-1 peptide reagents and methods” (THE REGENTS OF THE UNIVERSITY OF MICHIGAN, priority 2015, dated 2020).
